{
  "source": "patent US8114895B2",
  "about": "“Use of bipyridine compound ‘Caerulomycin A’ derivatives and analogs thereof as immunosuppressive agents” (Council of Science and Industrial Research, priority 2005, dated 2012)",
  "key": {"[1]": {"tested_on": "J774", "assay": "Expression of B7-1 and B7-2 on J774", "assay_type": "cell-based"}, "[2]": {"tested_on": "calcium dependent pathway", "assay": "Proliferation by the calcium dependent (PMA+Lonomycin) pathway", "assay_type": "cell-based", "settings": "48 h", "method": "Cells were seeded at 5×10^4 cells/well in flat-bottom 96-well plates. The various stimuli and Caerulomycin A were added at the initiation of the cultures. After 48 h, [^3H]-thymidine (1 μCi/well) was added, and its incorporation was measured 12 h later."}, "[3]": {"tested_on": "BALB/c splenocytes (responder cells) and γ-irradiated C57BL/6J splenocytes (stimulator cells)", "assay": "Mixed lymphocyte reaction (MLR), [3H]-thymidine incorporation", "assay_type": "cell-based, mice", "method": "The MLR was performed in 96-well tissue culture plates, with each well containing 4×10^5 BALB/c splenocytes (responder cells) and 4×10^5 γ-irradiated (3000R) C57BL/6J splenocytes (stimulator cells) in 200 μl RPMI/FCS-10% medium and with various concentrations of Caerulomycin A (1-0.0125 μg/ml) and Cyclosporin A (0.0125-10 μg/ml). The control cultures consisting of BALB/c splenocytes in medium alone, γ-irradiated C57BL/6J splenocytes and BALB/c splenocytes+γ-irradiated C57BL/6J splenocytes were also kept. After 4 days, the cultures were pulsed with 1 μCi of [^3H]-thymidine and harvested 16 h later by a Skatron cell harvester. Radioactivity incorporated was measured by liquid scintillation counting and data expressed as mean counts per minute (cpm).\nExamples establishing the role of Caerulomycin A [isolated from a novel species of Actinoalloteichus] in inducing immunosuppression based on the following: • Splenocytes of BALB/c mice were stimulated with either ConA (1 μg/ml and 2 μg/ml) or LPS (5 μg/ml and 10 μg/ml) and were cultured with different concentrations of Caerulomycin A (0.0003-0.1 μg/ml). […] Radioactivity incorporated was measured by liquid scintillation counting. • Antigen ovalbumin (100 μg/ml) emulsified in Freund's complete adjuvant was injected in a group consisting of 5 BALB/c mice. […] Radioactivity incorporated was measured by liquid scintillation. […]"}, "[4]": {"tested_on": "OVA-specific T cells", "assay": "Cytokine secretion by OVA-primed splenocytes (ELISA)", "assay_type": "cell-based, BALB/c mice", "settings": "OVA 200 μg/ml, supernatants after 48 h", "method": "OVA (2 mg/ml) was dissolved in PBS (0.01 M, pH 7.2) and emulsified in Freund's complete adjuvant (FCA). Emulsion (100 μl) was then injected intraperitoneally in a group consisting of 5 BALB/c mice. The control group was injected with PBS alone. After seven days, mice were sacrificed and splenocytes were pooled and used for proliferation and cytokine assays. Splenocytes (5×10^5 cells/well) were cultured with OVA (200 μg/ml) in 200 μl RPMI/FCS-10% medium and with various concentrations of Caerulomycin A (0.0003-0.1 μg/ml). The control cultures consisting of splenocytes incubated with different concentrations of Caerulomycin A (no OVA), OVA and medium were also kept. The culture supernatants were collected after 48 h and cytokines were measured by ELISA."}},
  "note": "Entries after “also recorded” stand apart in the source; their conditions may differ.",
  "data": [
    {"molecule": "COc1cc(/C=N/O)nc(-c2ccccn2)c1", "note": "[Caerulomycin A, (E)-4-methoxy-2,2′-bipyridine-6-carbaldehyde oxime]", "values": [
      {"measurement": "expression of B7-1", "setting": "[1]", "value": "no major change"},
      {"measurement": "expression of B7-2", "setting": "[1]", "value": "increased the expression"},
      {"measurement": "proliferation of calcium dependent pathway", "setting": "[2]", "value": "significantly inhibited the proliferation"},
      {"measurement": "MLR reaction (proliferation)", "setting": "[3]; Caerulomycin A 1-0.0125 μg/ml, Cyclosporin A 0.0125-10 μg/ml, 4 days", "value": "dose dependent inhibition; also recorded: substantially reduced the MLR reaction"},
      {"measurement": "potency in inhibiting MLR relative to Cyclosporin A (CsA)", "setting": "[3]; similar amount of inhibition of proliferation at a lesser dose than CsA", "value": 10, "unit": "fold"},
      {"measurement": "secretion of IFN-γ", "setting": "[4]; Caerulomycin A 0.05-0.1 μg/ml", "value": "significantly suppressed the secretion"},
      {"measurement": "production of IL-10", "setting": "[4]", "value": "failed to induce any change"}
    ]}
  ]
}
